Data from US4172138A, “Method and composition of matter for the treatment of dry cows for mastitis” (priority 1977, dated 1979).
≈ marks a conversion by molar mass, not a printed value.

Key:
[1] = cited from earlier work
[2] = residual penicillin G in the udder of a treated dry cow over 30 days; assay type: in vivo; settings: for Residual Benzathine Penicillin G In The Udder: 500,000 units of the composition of Example 1; for Residual Procaine Penicillin G In The Udder: dosage of 500,000 u
[3] = high concentration product, e.g. 1,000,000 units procaine penicillin G and 1,000 milligrams dihydrostreptomycin; in some cases; cited from earlier work

Row | Structure (SMILES) | solubility in water ([1]; water) | Residual Benzathine Penicillin G In The Udder ([2]; day 8 past treatment) | Residual Benzathine Penicillin G In The Udder ([2]; day 10 past treatment) | Residual Benzathine Penicillin G In The Udder ([2]; day 12 past treatment) | Residual Benzathine Penicillin G In The Udder ([2]; day 16 past treatment) | Residual Benzathine Penicillin G In The Udder ([2]; day 23 past treatment) | Residual Benzathine Penicillin G In The Udder ([2]; day 30 past treatment) | amount remaining for effectively treating mastitis, compared with procaine penicillin ([2]; over the extended 30 day treatment) | solubility (in words) ([1]; compared with limited solubility penicillin) | desired residual effects remain in the udder of a treated cow [3] | dissipation of procaine penicillin ([2]; after the 8th day) | initial amount of procaine penicillin remaining, compared with benzathine penicillin G ([2]; at the 8th day) | amount of procaine penicillin remaining relative to remaining benzathine penicillin G ([2]; by the tenth day) | Residual Procaine Penicillin G In The Udder ([2]; day 8 past treatment) | Residual Procaine Penicillin G In The Udder ([2]; day 10 past treatment) | Residual Procaine Penicillin G In The Udder ([2]; day 12 past treatment) | Residual Procaine Penicillin G In The Udder ([2]; day 16 past treatment, not detectable) | Residual Procaine Penicillin G In The Udder ([2]; day 23 past treatment, not detectable) | Residual Procaine Penicillin G In The Udder ([2]; day 30 past treatment, not detectable)
1 | CC1(C)S[C@@H]2[C@H](NC(=O)Cc3ccccc3)C(=O)N2[C@H]1C(=O)O [Benzathine Penicillin G, N, N dibenzyl ethylene diamine di benzyl penicillinate] | 500 µg/mL (≈ 1500 µM) | 5.37 u/ml. | 3.67 u/ml. | 4 u/ml. | 3.57 u/ml. | 2.2 u/ml. | 0.11 u/ml. | substantially greater |  |  |  |  |  |  |  |  |  |  | 
2 | CC1(C)S[C@@H]2[C@H](NC(=O)Cc3ccccc3)C(=O)N2[C@H]1C(=O)O [Procaine Penicillin G] |  |  |  |  |  |  |  |  | greater solubility | only a few days | rapidly dissipated | higher | less than half | 7.68 u/ml. | 1.56 u/ml. | .21 u/ml. | less than 0.01 u/ml. | less than 0.01 u/ml. | less than 0.01 u/ml.
